# How the values were obtained:
# [1] = target: T1, E. coli LpxC C63A (Escherichia coli, UniProt P0A725, C63A); assay: LC–MS/MS-based determination of KM; assay type: biochemical; conditions: substrate 1, LC–MS/MS-based assay
# T1 construct: made in house; host or cells: E. coli BL21(DE3)
# Method: In order to determine the inhibitory activities of the compounds of interest toward E. coli LpxC, a fluorescence-based enzyme assay was deployed, in which the formed deacetylated natural product UDP-3-O-[(R)-3-hydroxymyristoyl]glucosamine (2) is transformed into a fluorescent isoindole with o-phthaldialdehyde and 2-mercaptoethanol.[48],[49] […] The KM of E. coli LpxC C63A was determined experimentally using a mass spectrometry-based LpxC assay (Figure S8, Supporting Information, vide infra).
# Generally, the LC–MS/MS-based method represents an alternative to analyze compounds, which cannot be tested in the fluorescence-based assay, like primary amines and intrinsically fluorescent compounds. Additionally, it offers the advantage that lower substrate concentrations (10%) are used in the established protocol compared to the fluorescence-based assay, in which the detection of respectively low product concentrations would be difficult to detect due to inherently high background fluorescence. […] Additionally, the KM of E. coli LpxC C63A could be determined using the LC–MS/MS-based method (Figure S8, Supporting Information, vide supra). […]
# The values of KM and vmax for the E. coli LpxC C63A- as well as the P. aeruginosa LpxC-catalyzed deacetylation of UDP-3-O-[(R)-3-hydroxymyristoyl]-N-acetylglucosamine (1) were determined using the conditions of the established LC-MS/MS-based enzyme assay. […]
# [2] = target: T2, P. aeruginosa LpxC (Pseudomonas aeruginosa, UniProt P47205); assay: LC–MS/MS-based determination of KM; assay type: biochemical; conditions: read-out: KM of the P. aeruginosa LpxC-catalyzed deacetylation; substrate 1, LC–MS/MS-based assay
# T2 construct: made in house; host or cells: E. coli BL21(DE3)
# T2 sequence (P47205 whole entry): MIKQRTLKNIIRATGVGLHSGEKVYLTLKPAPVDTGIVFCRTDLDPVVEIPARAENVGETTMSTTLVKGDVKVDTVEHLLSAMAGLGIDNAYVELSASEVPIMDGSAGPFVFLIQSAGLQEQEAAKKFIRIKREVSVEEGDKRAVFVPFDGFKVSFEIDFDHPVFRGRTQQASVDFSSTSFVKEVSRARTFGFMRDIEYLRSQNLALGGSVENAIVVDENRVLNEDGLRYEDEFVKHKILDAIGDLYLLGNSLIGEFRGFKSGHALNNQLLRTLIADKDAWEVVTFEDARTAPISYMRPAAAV
# Source text: Generally, the LC–MS/MS-based method represents an alternative to analyze compounds, which cannot be tested in the fluorescence-based assay, like primary amines and intrinsically fluorescent compounds. Additionally, it offers the advantage that lower substrate concentrations (10%) are used in the established protocol compared to the fluorescence-based assay, in which the detection of respectively low product concentrations would be difficult to detect due to inherently high background fluorescence. […] Additionally, the KM of E. coli LpxC C63A could be determined using the LC–MS/MS-based method (Figure S8, Supporting Information, vide supra).
# Determination of enzymatic parameters
# The values of KM and vmax for the E. coli LpxC C63A- as well as the P. aeruginosa LpxC-catalyzed deacetylation of UDP-3-O-[(R)-3-hydroxymyristoyl]-N-acetylglucosamine (1) were determined using the conditions of the established LC-MS/MS-based enzyme assay.
# The wells in a black, non-binding, 96-well fluorescence microplate (Greiner Bio One, Frickenhausen) were filled with 93 µL of varying concentrations of UDP-3-O-[(R)-3-hydroxymyristoyl]-N-acetylglucosamine (26.9 µM, 10.8 µM, 2.69 µM, 1.08 µM, 0.538 µM, 0.269 µM) in assay buffer (40 mM sodium morpholinoethanesulfonic acid (pH = 6.0), 80 µM dithiothreitol, 0.02% Brij 35). […]
# T1 sequence (P0A725 whole entry C63A): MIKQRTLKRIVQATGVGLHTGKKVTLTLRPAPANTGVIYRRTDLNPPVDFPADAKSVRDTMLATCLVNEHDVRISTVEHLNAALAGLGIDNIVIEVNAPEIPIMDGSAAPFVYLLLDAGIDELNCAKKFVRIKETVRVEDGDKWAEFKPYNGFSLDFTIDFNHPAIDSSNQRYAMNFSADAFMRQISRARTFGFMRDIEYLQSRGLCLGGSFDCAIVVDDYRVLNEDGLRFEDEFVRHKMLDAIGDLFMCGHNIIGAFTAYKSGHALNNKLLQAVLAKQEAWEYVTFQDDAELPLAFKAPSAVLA
compound,measurement,setting,value
"CCCCCCCCCCCC(O)CC(=O)OC1C(O)C(CO)OC(OP(=O)(O)OP(=O)(O)OCC2OC(n3ccc(=O)[nH]c3=O)C(O)C2O)C1NC(C)=O [compound 1, UDP-3-O-[(R)-3-hydroxymyristoyl]-N-acetylglucosamine]",Km,[1],3.6 µM
same,Km,[2],4.7 µM

# Source: paper PMC11472313, “Development of Fragment-Based Inhibitors of the Bacterial Deacetylase LpxC with Low Nanomolar Activity” (Journal of Medicinal Chemistry, 2024)
